“Also recorded” adds a separate entry of the source. Structures can show the parent of a compound that is named as a salt.
Assays:
[1] = biological target: T1, progesterone receptor (PR) (Homo sapiens, UniProt P06401); assay: PRE-luciferase reporter, steroid receptor specificity; format: cell-based; details: LNCaP cells transfected with PR, steroid 10 nM; 185-9-2 5 μg/ml, bicalutamide 10 μM
T1 construct: Cells were co-transfected with expression plasmids for full-length hGR, PRβ and the relative reporter; expressed in transfected cells; host or cells: LNCaP
T1 sequence (P06401 1-933): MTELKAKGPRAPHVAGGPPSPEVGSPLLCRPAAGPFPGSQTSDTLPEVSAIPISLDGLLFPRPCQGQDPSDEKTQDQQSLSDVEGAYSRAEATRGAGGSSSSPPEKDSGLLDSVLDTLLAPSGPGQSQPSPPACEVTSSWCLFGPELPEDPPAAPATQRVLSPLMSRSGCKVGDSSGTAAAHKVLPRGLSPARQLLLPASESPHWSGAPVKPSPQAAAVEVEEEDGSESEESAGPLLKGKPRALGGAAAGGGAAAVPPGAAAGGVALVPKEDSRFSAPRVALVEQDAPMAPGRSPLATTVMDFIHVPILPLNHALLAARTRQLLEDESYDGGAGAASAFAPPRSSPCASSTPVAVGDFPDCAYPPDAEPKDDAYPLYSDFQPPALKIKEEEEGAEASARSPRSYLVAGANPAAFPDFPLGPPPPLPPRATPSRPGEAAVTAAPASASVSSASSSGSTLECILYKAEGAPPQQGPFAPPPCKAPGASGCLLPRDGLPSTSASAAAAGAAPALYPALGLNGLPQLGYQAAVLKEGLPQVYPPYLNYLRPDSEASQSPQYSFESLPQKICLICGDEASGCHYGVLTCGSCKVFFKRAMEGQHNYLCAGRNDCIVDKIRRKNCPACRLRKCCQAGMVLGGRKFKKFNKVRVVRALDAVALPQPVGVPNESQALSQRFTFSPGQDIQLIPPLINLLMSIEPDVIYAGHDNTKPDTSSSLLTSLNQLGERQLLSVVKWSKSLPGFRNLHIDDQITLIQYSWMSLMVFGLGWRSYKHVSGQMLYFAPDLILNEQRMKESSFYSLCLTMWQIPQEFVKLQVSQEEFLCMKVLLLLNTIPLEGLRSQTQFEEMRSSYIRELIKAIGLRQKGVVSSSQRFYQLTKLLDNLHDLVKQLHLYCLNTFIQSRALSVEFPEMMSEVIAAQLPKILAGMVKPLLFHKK
Experimental: (§1) Sequence similarities of amino acids in the AR with related human steroid receptors PR and glucocorticoid receptor (GR) are significant in some domains such as the DBD. The AR NTD shares less than 15% homology with the PR and GR, but these receptors interact with some of the same proteins (eg., SRC-1 and CBP). […] Cells were co-transfected with expression plasmids for full-length hGR, PRβ and the relative reporter (i.e., pGR-Luc or PRE-E1b-Luc reporters). Cells were then treated with ethanol vehicle, dexamethasone (GR), 4-pregnene-3,20 dione (progesterone) (PR) followed by measurement of luciferase activity. […] Some antiandrogens currently used in the clinic have progestational and glucocorticoidal activities. In adult males, the role of the PR activity is unclear.

[2] = biological target: T2, glucocorticoid receptor (GR) (Homo sapiens, UniProt P04150); assay: GRE-luciferase reporter, steroid receptor specificity; format: cell-based; details: LNCaP cells transfected with GR, steroid 10 nM; 185-9-2 5 μg/ml
T2 construct: Cells were co-transfected with expression plasmids for full-length hGR, PRβ and the relative reporter; expressed in transfected cells; host or cells: LNCaP
T2 sequence (P04150 1-777): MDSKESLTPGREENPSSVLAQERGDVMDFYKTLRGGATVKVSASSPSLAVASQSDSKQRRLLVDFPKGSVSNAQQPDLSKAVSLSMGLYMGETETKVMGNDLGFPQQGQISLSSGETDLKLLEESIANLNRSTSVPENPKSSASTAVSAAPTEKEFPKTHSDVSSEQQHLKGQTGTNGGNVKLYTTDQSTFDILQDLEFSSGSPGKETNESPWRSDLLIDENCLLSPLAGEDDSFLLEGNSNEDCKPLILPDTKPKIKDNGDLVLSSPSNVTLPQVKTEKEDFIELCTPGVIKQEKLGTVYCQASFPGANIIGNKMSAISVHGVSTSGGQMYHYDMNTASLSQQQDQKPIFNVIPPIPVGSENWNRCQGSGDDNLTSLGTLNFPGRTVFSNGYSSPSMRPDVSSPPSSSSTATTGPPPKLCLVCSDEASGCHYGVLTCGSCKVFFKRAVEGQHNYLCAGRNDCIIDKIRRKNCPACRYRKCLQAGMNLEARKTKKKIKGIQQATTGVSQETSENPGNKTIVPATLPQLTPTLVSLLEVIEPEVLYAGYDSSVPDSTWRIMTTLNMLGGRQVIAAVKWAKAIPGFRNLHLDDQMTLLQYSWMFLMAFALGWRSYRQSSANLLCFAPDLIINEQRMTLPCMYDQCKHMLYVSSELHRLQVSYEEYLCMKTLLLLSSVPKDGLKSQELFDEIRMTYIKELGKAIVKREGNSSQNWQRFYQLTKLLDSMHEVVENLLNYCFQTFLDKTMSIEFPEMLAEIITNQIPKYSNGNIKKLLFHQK
Experimental: as §1

## CC(C)(c1ccc(OCC(O)CO)cc1)c1ccc(OCC(O)CCl)cc1 (centres unmarked) [185-9-2, BADGE.HCL.H2O]
[1]
  PRE-luciferase activity in response to ligand: did NOT inhibit; also recorded: does NOT inhibit
[2]
  GRE-luciferase activity in response to ligand: did NOT inhibit; also recorded: does NOT inhibit

Reference: US8686050B2, “Diglycidic ether derivative therapeutics and methods for their use” (British Columbia Cancer Agency Branch, priority 2008, dated 2014)
